{"source": "ChEMBL document CHEMBL1201862", "about": "“PubChem BioAssay data set” (2004)", "assay_type_in_all_cases": "functional", "key": {"[1]": {"target": "Glycogen synthase kinase-3 alpha (Homo sapiens, UniProt P49840)"}, "[2]": {"target": "Mitogen-activated protein kinase kinase kinase kinase 4 (Homo sapiens, UniProt O95819)", "sequence (O95819 whole entry)": "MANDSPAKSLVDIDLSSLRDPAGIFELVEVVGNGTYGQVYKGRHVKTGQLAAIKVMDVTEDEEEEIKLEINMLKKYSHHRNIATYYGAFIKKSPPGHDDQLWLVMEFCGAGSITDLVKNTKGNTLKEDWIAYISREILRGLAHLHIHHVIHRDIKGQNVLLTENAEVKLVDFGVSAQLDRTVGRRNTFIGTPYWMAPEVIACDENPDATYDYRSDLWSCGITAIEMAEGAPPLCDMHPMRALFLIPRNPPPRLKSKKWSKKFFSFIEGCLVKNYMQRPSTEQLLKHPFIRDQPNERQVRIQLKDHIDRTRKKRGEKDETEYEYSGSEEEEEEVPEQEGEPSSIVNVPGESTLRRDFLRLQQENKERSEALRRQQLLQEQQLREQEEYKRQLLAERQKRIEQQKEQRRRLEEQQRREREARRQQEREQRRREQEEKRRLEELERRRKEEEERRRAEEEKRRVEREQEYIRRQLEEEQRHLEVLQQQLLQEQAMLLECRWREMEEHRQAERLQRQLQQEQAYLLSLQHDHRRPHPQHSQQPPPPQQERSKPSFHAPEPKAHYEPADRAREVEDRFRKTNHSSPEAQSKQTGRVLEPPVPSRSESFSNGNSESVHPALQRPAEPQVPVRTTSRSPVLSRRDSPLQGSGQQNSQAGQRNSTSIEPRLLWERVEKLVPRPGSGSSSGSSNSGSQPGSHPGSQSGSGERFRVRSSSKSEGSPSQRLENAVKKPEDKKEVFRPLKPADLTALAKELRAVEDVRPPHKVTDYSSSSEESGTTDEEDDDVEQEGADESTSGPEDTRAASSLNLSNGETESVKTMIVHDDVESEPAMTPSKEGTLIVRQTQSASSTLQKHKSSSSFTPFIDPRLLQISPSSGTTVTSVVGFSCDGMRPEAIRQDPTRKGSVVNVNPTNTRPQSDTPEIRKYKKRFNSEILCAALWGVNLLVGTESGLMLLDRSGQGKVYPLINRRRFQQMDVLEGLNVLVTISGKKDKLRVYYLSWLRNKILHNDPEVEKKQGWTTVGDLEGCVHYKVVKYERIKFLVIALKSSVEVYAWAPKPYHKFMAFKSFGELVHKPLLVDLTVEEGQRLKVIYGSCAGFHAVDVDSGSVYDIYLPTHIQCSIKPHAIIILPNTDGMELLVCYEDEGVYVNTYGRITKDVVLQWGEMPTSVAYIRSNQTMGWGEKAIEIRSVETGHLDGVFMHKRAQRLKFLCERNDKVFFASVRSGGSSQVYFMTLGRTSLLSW"}, "Caspase-3 [3]": {"target": "T1, Caspase-3 (Homo sapiens, UniProt P42574)", "T1 sequence (P42574 whole entry)": "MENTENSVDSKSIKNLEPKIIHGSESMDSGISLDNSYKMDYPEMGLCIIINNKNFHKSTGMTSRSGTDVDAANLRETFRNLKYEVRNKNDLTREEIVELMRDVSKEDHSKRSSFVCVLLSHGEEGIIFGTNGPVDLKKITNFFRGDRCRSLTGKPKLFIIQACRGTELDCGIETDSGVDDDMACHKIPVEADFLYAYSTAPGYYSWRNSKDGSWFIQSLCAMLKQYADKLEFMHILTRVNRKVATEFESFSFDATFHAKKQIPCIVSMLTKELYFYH", "assay": "caspase-3 inhibitors as off-family protease, SAR follow-up, selectivity assay for SENP protease inhibitor project, biochemical, luminescence, set 2 (AID 588599)"}, "[4]": {"target": "T2, Sentrin-specific protease 8 (Homo sapiens, UniProt Q96LD8)", "T2 sequence (Q96LD8 whole entry)": "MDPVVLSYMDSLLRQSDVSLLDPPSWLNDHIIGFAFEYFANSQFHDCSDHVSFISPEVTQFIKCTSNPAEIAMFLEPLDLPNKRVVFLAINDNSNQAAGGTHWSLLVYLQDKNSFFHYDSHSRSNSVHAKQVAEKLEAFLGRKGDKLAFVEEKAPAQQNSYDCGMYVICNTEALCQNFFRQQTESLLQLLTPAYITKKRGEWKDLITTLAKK", "assay": "SENP8 protease inhibitors, SAR follow-up, biochemical, luminescence, set 2 (AID 588601)"}, "[5]": {"target": "T3, Sentrin-specific protease 7 (Homo sapiens, UniProt Q9BQF6)", "T3 sequence (Q9BQF6 whole entry)": "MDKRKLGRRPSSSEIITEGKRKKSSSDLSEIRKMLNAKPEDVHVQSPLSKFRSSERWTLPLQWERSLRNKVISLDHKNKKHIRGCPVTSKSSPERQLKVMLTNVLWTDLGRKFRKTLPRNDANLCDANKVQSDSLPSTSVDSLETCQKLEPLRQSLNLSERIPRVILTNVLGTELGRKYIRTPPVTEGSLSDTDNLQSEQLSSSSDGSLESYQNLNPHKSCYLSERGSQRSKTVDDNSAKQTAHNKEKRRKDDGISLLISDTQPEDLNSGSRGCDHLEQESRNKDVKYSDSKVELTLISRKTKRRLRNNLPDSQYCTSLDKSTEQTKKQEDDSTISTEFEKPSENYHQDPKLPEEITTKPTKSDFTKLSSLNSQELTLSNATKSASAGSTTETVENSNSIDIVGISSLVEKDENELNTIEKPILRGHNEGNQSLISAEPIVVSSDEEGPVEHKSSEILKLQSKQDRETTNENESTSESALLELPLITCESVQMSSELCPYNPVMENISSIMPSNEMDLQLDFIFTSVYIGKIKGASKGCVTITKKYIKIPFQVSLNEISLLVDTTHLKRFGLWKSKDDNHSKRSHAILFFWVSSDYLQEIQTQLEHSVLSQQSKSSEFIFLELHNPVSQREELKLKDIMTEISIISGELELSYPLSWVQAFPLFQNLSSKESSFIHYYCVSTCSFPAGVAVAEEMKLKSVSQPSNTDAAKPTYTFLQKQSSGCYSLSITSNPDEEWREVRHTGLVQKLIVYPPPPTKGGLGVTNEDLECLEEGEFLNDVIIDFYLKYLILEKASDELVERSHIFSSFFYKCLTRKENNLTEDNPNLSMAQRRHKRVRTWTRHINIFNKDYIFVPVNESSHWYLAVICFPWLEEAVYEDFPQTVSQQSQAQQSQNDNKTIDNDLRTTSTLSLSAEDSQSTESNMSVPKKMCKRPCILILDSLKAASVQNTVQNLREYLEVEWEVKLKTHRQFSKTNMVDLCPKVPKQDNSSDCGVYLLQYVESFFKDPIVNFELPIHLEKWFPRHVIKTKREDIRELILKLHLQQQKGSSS", "assay": "SENP7 protease inhibitors, SAR follow-up, biochemical, luminescence, set 2 (AID 588600)"}, "[6]": {"target": "T4, Sentrin-specific protease 6 (Homo sapiens, UniProt Q9GZR1)", "T4 sequence (Q9GZR1 whole entry)": "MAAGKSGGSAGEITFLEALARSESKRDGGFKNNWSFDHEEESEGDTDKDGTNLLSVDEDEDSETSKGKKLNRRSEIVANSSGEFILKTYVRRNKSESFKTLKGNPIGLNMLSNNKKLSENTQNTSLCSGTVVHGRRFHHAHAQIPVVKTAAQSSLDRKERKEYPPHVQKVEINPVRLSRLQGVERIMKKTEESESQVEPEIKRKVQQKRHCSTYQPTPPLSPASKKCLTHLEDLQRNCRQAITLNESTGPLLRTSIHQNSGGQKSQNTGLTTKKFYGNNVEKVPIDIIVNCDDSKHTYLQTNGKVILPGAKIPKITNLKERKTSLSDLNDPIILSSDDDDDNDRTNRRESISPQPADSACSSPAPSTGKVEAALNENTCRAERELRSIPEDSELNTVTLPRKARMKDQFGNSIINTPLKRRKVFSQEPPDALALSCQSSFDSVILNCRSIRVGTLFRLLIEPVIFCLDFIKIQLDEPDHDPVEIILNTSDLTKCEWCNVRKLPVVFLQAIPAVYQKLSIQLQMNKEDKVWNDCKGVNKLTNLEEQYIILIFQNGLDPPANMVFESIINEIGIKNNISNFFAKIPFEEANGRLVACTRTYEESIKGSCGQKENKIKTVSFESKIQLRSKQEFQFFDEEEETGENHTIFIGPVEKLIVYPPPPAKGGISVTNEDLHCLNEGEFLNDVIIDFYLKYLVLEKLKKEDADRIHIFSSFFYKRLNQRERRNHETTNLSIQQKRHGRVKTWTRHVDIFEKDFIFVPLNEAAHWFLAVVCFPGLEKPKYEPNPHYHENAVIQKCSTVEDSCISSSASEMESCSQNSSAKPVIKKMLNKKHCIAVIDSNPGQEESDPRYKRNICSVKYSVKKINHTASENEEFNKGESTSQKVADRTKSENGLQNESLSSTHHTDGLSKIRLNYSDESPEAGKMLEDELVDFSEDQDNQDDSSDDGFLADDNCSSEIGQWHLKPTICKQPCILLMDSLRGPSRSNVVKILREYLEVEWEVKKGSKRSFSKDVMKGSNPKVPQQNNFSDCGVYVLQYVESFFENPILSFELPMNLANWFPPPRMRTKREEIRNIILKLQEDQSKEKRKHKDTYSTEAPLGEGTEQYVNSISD", "assay": "SENP6 protease inhibitors, SAR follow-up, biochemical, luminescence, set 2 (AID 588598)"}, "[7]": {"target": "Serine/threonine-protein kinase pim-1 (Homo sapiens, UniProt P11309)"}, "[8]": {"target": "Cell division cycle 7-related protein kinase (Homo sapiens, UniProt O00311)", "sequence (O00311 whole entry)": "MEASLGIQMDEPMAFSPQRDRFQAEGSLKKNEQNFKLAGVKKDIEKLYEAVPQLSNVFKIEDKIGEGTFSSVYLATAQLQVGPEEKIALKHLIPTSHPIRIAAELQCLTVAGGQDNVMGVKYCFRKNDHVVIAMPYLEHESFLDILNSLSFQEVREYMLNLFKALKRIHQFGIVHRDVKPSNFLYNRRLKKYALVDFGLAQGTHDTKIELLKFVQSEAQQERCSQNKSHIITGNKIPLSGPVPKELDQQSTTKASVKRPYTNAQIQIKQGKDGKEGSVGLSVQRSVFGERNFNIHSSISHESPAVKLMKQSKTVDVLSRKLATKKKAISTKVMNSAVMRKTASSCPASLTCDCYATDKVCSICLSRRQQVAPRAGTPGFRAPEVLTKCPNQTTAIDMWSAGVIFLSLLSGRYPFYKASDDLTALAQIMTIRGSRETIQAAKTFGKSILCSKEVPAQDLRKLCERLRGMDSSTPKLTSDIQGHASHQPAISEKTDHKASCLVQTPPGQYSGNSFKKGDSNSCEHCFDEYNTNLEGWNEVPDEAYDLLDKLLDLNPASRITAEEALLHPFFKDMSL"}, "[9]": {"target": "Homeodomain-interacting protein kinase 2 (Homo sapiens, UniProt Q9H2X6)", "sequence (Q9H2X6 whole entry)": "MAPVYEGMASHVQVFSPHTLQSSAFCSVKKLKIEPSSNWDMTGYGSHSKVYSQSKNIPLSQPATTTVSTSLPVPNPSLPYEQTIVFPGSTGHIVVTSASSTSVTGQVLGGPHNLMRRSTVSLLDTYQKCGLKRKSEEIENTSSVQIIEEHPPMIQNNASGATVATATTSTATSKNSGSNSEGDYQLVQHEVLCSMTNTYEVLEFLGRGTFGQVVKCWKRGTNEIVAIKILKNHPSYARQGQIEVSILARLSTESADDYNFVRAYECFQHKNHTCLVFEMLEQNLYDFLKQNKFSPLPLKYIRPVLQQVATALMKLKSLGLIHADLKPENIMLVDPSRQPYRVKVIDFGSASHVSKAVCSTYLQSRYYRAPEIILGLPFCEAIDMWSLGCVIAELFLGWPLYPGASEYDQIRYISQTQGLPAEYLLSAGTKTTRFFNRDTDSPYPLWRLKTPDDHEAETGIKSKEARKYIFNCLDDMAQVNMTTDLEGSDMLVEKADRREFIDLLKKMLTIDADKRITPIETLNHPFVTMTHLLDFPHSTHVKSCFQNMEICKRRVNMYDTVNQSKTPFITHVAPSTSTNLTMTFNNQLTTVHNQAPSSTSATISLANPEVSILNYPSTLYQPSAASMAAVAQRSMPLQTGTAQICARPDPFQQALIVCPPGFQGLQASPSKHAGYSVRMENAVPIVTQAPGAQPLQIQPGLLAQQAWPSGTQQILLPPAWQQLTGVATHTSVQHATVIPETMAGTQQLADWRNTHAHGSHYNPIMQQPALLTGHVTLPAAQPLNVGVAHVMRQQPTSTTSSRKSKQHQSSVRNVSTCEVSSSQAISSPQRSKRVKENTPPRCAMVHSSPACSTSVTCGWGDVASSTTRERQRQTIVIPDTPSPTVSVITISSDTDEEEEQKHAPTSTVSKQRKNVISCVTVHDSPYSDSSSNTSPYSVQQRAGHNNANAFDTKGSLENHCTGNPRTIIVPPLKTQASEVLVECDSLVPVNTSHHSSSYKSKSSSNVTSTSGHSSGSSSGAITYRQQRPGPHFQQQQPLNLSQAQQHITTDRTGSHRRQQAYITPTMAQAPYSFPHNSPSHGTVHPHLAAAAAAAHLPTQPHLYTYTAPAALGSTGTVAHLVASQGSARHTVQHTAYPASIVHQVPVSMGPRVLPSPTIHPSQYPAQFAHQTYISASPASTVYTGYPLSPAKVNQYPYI"}, "[10]": {"target": "MAP kinase-interacting serine/threonine-protein kinase 2 (Homo sapiens, UniProt Q9HBH9)", "sequence (Q9HBH9 whole entry)": "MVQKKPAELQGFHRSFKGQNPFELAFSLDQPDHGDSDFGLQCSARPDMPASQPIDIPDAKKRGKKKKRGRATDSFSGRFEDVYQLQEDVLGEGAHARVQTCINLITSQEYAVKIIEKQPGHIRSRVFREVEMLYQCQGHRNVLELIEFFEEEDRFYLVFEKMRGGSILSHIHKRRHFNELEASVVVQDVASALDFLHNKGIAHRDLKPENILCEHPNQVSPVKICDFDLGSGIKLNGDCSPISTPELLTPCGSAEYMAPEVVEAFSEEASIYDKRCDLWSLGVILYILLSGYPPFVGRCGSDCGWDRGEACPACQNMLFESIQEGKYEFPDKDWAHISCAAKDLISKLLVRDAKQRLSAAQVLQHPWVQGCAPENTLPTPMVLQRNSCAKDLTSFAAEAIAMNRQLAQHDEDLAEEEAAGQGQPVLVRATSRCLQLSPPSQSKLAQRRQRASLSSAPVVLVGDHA"}, "[11]": {"target": "Interleukin-1 receptor-associated kinase 4 (Homo sapiens, UniProt Q9NWZ3)", "sequence (Q9NWZ3 whole entry)": "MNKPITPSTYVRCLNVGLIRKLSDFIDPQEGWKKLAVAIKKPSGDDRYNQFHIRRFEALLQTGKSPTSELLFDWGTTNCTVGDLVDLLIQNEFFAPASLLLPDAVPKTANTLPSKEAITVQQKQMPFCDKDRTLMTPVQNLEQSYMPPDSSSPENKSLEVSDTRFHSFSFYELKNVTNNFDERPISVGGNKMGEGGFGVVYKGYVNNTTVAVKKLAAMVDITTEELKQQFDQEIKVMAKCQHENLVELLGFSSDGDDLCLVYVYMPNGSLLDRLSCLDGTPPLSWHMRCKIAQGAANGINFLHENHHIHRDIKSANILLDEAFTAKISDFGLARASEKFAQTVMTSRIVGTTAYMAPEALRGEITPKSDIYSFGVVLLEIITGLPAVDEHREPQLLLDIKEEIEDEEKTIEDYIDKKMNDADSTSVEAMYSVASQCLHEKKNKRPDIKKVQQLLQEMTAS"}, "[12]": {"target": "Glycogen synthase kinase-3 beta (Homo sapiens, UniProt P49841)", "sequence (P49841 whole entry)": "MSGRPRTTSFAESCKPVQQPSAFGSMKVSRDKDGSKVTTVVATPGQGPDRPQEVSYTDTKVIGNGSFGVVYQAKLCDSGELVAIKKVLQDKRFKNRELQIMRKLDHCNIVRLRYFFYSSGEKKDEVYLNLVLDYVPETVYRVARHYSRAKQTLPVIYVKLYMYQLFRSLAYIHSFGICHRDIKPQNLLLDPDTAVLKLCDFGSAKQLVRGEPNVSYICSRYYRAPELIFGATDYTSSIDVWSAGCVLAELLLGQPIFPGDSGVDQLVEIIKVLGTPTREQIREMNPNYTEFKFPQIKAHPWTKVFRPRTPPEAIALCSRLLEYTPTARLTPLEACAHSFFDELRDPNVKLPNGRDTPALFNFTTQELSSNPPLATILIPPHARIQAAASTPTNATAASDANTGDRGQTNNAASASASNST"}, "[13]": {"target": "cAMP-dependent protein kinase catalytic subunit alpha (Homo sapiens, UniProt P17612)"}, "[14]": {"target": "Dual specificity protein kinase CLK4 (Homo sapiens, UniProt Q9HAZ1)", "sequence (Q9HAZ1 whole entry)": "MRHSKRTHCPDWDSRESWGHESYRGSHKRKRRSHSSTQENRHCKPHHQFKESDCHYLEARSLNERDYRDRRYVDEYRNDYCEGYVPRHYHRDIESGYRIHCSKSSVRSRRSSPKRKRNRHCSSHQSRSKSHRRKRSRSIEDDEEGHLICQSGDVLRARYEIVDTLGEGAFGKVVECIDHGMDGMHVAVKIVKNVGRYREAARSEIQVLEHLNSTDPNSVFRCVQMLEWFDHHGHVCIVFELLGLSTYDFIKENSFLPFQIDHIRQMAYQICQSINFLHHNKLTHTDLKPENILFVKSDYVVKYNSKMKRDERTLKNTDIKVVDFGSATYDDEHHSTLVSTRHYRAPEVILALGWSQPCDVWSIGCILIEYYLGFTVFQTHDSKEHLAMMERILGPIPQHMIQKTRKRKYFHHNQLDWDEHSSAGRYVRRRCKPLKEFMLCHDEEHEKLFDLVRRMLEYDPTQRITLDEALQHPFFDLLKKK"}, "[15]": {"target": "T2, Sentrin-specific protease 8", "assay": "SENP8 protease inhibitors, SAR follow-up, biochemical, luminescence (AID 504501)"}, "Caspase-3 [16]": {"target": "T1, Caspase-3", "assay": "SAR Analysis of small molecule inhibitors of Sentrin-specific proteases (SENPs) using a Caspase-3 Selectivity assay. [Related pubchem assays (depositor defined):AID2540, AID2599, AID434973, AID489001]"}, "[17]": {"target": "T4, Sentrin-specific protease 6", "assay": "SAR Analysis of small molecule inhibitors of Sentrin-specific protease 6 (SENP6) using a Luminescent assay. [Related pubchem assays (depositor defined):AID2582, AID2599]"}, "[18]": {"target": "T3, Sentrin-specific protease 7", "assay": "SENP7 protease inhibitors, SAR follow-up, biochemical, luminescence (AID 504497)"}, "[19]": {"target": "Multidrug resistance protein CDR1 (Candida albicans, UniProt P43071)", "assay": "CaCdr1 efflux pump inhibitor potency, dose response, singleplex, Cherry Pick2 set (AID 623996)", "settings": "read-out: EC50_MICROM"}, "[20]": {"target": "T5, High affinity choline transporter 1 (Homo sapiens, UniProt Q9GZV3)", "T5 sequence (Q9GZV3 whole entry)": "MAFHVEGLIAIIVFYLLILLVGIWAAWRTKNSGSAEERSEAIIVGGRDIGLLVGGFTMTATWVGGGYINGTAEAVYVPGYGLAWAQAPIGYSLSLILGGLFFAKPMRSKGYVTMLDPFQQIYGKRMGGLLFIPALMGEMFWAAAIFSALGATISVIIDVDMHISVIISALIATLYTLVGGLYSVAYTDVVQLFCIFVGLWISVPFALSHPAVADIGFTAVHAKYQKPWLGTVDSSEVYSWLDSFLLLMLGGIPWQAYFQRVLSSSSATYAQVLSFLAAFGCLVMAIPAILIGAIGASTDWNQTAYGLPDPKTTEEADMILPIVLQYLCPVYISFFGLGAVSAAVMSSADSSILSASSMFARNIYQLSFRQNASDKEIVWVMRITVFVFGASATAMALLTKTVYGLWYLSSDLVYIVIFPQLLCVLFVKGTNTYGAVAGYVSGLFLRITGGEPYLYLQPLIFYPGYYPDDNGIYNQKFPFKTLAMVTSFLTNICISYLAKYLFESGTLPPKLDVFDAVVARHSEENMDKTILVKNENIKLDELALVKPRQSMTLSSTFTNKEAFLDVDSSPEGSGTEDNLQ", "assay": "CHT activators, dose response, cell-based, 10-point CRC, membrane potential dye (AID 602376)"}, "[21]": {"target": "T6, Ubiquitin-conjugating enzyme E2 N (Homo sapiens, UniProt P61088)", "T6 sequence (P61088 whole entry)": "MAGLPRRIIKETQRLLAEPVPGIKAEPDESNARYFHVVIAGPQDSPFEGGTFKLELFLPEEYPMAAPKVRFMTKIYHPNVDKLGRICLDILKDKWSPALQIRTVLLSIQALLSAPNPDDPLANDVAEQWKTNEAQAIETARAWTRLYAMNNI"}, "[22]": {"target": "Apoptotic protease-activating factor 1 (Homo sapiens, UniProt O14727)"}}, "note": "Active and inactive are the calls of the source."}
{"smiles": "Cc1cc(O)nc2[nH]nc(-c3cccc(-c4cccc(C#N)c4)c3)c12", "values": [{"measurement": "Ki", "setting": "[1]", "value": "3.16 µM (active)"}, {"measurement": "Ki", "setting": "[2]", "value": "5.01 µM (active)"}]}
{"smiles": "O=C(C(=O)N1CCCc2ccccc21)c1c[nH]c2ccccc12", "values": [{"measurement": "IC50", "setting": "Caspase-3 [3]", "value": "> 99 µM (inactive)"}, {"measurement": "IC50", "setting": "[4]", "value": "> 99 µM (inactive)"}, {"measurement": "IC50", "setting": "[5]", "value": "> 99 µM (inactive)"}, {"measurement": "IC50", "setting": "[6]", "value": "> 99 µM (inactive)"}]}
{"smiles": "NC(=O)c1ccc(-c2ccncc2)cc1NCc1cccc(F)c1", "values": [{"measurement": "Ki", "setting": "[7]", "value": "7.94 µM (active)"}, {"measurement": "Ki", "setting": "[8]", "value": "158 nM (active)"}, {"measurement": "Ki", "setting": "[9]", "value": "> 3.16 µM (inactive)"}, {"measurement": "Ki", "setting": "[10]", "value": "> 10 µM (inactive)"}, {"measurement": "Ki", "setting": "[11]", "value": "> 10 µM (inactive)"}, {"measurement": "Ki", "setting": "[12]", "value": "794 nM (active)"}, {"measurement": "Ki", "setting": "[13]", "value": "> 7.94 µM (inactive)"}, {"measurement": "Ki", "setting": "[14]", "value": "100 nM (active)"}, {"measurement": "Ki", "setting": "[2]", "value": "2 µM (active)"}]}
{"smiles": "CS(=O)(=O)c1ccc2nc(NC(=O)c3c(F)cccc3F)sc2c1", "values": [{"measurement": "IC50", "setting": "[15]", "value": "> 99 µM (inactive)"}, {"measurement": "IC50", "setting": "Caspase-3 [16]", "value": "> 99 µM (inactive)"}, {"measurement": "IC50", "setting": "[17]", "value": "> 99 µM (inactive)"}, {"measurement": "IC50", "setting": "[18]", "value": "> 99 µM (inactive)"}]}
{"smiles": "COc1ccc2c(c1)OC[C@H]1[C@H]2N2C(=O)c3ccc(C)cc3NC(=O)[C@@]2(C)[C@H]1c1ccccc1", "values": [{"measurement": "EC50", "setting": "[19]", "value": "17.3 µM (active)"}]}
{"smiles": "CCCCNC(=O)COCc1cc(-c2ccc3c(c2)OCO3)on1", "values": [{"measurement": "EC50", "setting": "[20]", "value": "8.04 µM (active)"}]}
{"smiles": "COc1ccccc1C(CNC(=O)CNC(=O)c1ccccc1Cl)N1CCCC1", "note": "(stereo not drawn)", "values": [{"measurement": "IC50", "setting": "[21]", "value": "> 20 µM (inactive)"}, {"measurement": "IC50", "setting": "[22]", "value": "> 100 µM (inactive)"}]}
